Key:
[1] = tested on: Endothelial cells
[2] = tested on: Endothelial cells; experiment: Pretreatment of endothelial cells followed by S1P or HMW PEG challenge (TEER); assay type: cell-based; conditions: challenge 1 μM S1P or 8% HMW PEG
[3] = tested on: human lung microvessel endothelial cells (HLMVEC); experiment: Transendothelial electrical resistance (TEER) by ECIS, HMW PEG in serum-free EBM; assay type: cell-based; conditions: TEER
[4] = tested on: ERK and MLC phosphorylation; experiment: ERK and MLC phosphorylation by Western blot; assay type: cell-based, human; conditions: 1 μM S1P, 5 minutes
[5] = tested on: HPAECs; experiment: Intracellular calcium (Fura-2); assay type: cell-based, human; conditions: 1 U/ml thrombin; 1 μM S1P
[6] = tested on: human pulmonary artery endothelial cells (HPAEC); experiment: Reversal of thrombin- or LPS-induced barrier disruption (TEER); assay type: cell-based; conditions: LPS
[7] = tested on: P. aeruginosa PAO1 and 27853; assay type: cell-based, Pseudomonas aeruginosa
[8] = tested on: PA-I lectin/adhesin expression in P. aeruginosa; assay type: cell-based, Pseudomonas aeruginosa

High Molecular Weight PolyEthylene Glycol [HMW PEG]
exotoxin A-induced cytotoxicity [1]: completely protected

CCCCCCCCCCCCC/C=C/[C@@H](O)[C@@H](N)COP(=O)(O)O [S1P, sphingosine 1-phosphate]
effect of PMA pretreatment on the response to stimulation ([2]; pretreated 100 nM PMA 24 hours): Blocked | effect of PTX pretreatment on the response to stimulation ([2]; pretreated 100 ng/ml PTX 4 hours): Blocked | effect of S1P pretreatment on the response to stimulation ([2]; pretreated 1 μM S1P 24 hours): No effect | effect of FTY720 pretreatment on the response to stimulation ([2]; pretreated 10 μM FTY720 24 hours): Blunted | effect of FTY analog pretreatment on the response to stimulation ([2]; pretreated 10 μM FTY analog 24 hours): Blunted | time to maximum barrier enhancing effect [3]: 10 to 15 min | increase in resistance (maximum barrier enhancing effect) ([3]; human pulmonary microvessel EC): 40% | ERK phosphorylation [4]: drastic increase in ERK phosphorylation | intracellular calcium on stimulation of ECs [5]: induced intracellular calcium spikes

lipopolysaccharide [LPS]
duration of decrease in barrier resistance [6]: over 20 hours

C=CCN1C[C@H](C)N([C@H](c2ccc(C(=O)N(CC)CC)cc2)c2cccc(O)c2)C[C@H]1C [BW373U86]
biofilm production [7]: especially increased with the δ agonist | PA-I protein (immunoblot) [8]: induced PA-I protein to the same degree as C4-HSL
